Measured values from the supplement of paper PMC4862054.

How the values were obtained:
Details in all cases: incubation time: 72 h
MFM-223 [1] = assay: drug sensitivity score (DSS), CellTox Green (DSS (AUC-based score)); higher = stronger drug effect (viability inhibition or cytotoxicity); extreme values may be limits of the assay
Procedure, shortened: (§1)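 Compound was dispensed into 384-well plates at 5 concentrations in 10-fold steps spanning a 10,000-fold range chosen for each compound, and 20 µl of breast cancer cell suspension was added before 72 h of incubation. CellTox Green fluorescence was read at 485/520 nm, followed by CellTiter-Glo luminescence after 10 min at room temperature. Values on each plate were normalised to 0.1 % DMSO and a positive kill control. The drug sensitivity score came from the area under the fitted dose-response curve.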

BT-549 [2] = assay: as above
Procedure, shortened: as §1

MDA-MB-231 [3] = assay: as above
Procedure, shortened: as §1

CAL-85-1 [4] = assay: as above
Procedure, shortened: as §1

HCC1143 [5] = assay: as above
Procedure, shortened: as §1

HCC1937 [6] = assay: as above
Procedure, shortened: as §1

CAL-120 [7] = assay: as above
Procedure, shortened: as §1

CAL-148 [8] = assay: as above
Procedure, shortened: as §1

DU-4475 [9] = assay: as above
Procedure, shortened: as §1

MDA-MB-453 [10] = assay: as above
Procedure, shortened: as §1

BT-474 [11] = assay: as above
Procedure, shortened: as §1

SK-BR-3 = assay: normalised viability (% of control), CellTiter-Blue; higher = more viable cells (about 100 = DMSO control)
Procedure, shortened: (§2)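 Compound dissolved in 5 µl medium was pre-loaded into 384-well plates, and breast cancer cell lines in 20 µl suspension were seeded on top and incubated 72 h. After adding 2.5 µl CellTiter-Blue reagent for 2 h at 37 °C, fluorescence was read at 560/590 nm. Plates were normalised to vehicle (100) and a positive kill control (0), with Z'-factor quality control. Each value is normalised viability at a single listed concentration from the series.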

MFM-223 [12] = assay: as above
Procedure, shortened: as §2

BT-549 [13] = assay: as above
Procedure, shortened: as §2

HCC1599 = assay: as above
Procedure, shortened: as §2

HDQ-P1 = assay: as above
Procedure, shortened: as §2

Hs578T = assay: as above
Procedure, shortened: as §2

MDA-MB-231 [14] = assay: as above
Procedure, shortened: as §2

CAL-85-1 [15] = assay: as above
Procedure, shortened: as §2

HCC1143 [16] = assay: as above
Procedure, shortened: as §2

MDA-MB-436 = assay: as above
Procedure, shortened: as §2

MDA-MB-468 = assay: as above
Procedure, shortened: as §2

HCC1937 [17] = assay: as above
Procedure, shortened: as §2

CAL-120 [18] = assay: as above
Procedure, shortened: as §2

CAL-148 [19] = assay: as above
Procedure, shortened: as §2

CAL-51 = assay: as above
Procedure, shortened: as §2

DU-4475 [20] = assay: as above
Procedure, shortened: as §2

MDA-MB-453 [21] = assay: as above
Procedure, shortened: as §2

BT-474 [22] = assay: as above
Procedure, shortened: as §2

SMILES | drug sensitivity score (MFM-223 [1]) | drug sensitivity score (BT-549 [2]) | drug sensitivity score (MDA-MB-231 [3]) | drug sensitivity score (CAL-85-1 [4]) | drug sensitivity score (HCC1143 [5]) | drug sensitivity score (HCC1937 [6]) | drug sensitivity score (CAL-120 [7]) | drug sensitivity score (CAL-148 [8]) | drug sensitivity score (DU-4475 [9]) | drug sensitivity score (MDA-MB-453 [10]) | drug sensitivity score (BT-474 [11]) | normalised viability (SK-BR-3; 100 nM) | normalised viability (MFM-223 [12]; 100 nM) | normalised viability (BT-549 [13]; 100 nM) | normalised viability (HCC1599; 100 nM) | normalised viability (HDQ-P1; 10 nM) | normalised viability (Hs578T; 100 nM) | normalised viability (MDA-MB-231 [14]; 100 nM) | normalised viability (CAL-85-1 [15]; 10 nM) | normalised viability (HCC1143 [16]; 100 nM) | other results
C[C@]12C=CC(=O)C=C1CC[C@@H]1[C@@H]2C(=O)C[C@@]2(C)[C@H]1CC[C@]2(O)C(=O)CO [Prednisone] | 0 | 0 | 0 | 0 | 0 | 0 | 0.113 | 0 | 0 | 0 | 0 | 77% | 92.3% | 99.2% | 98.5% | 104% | 77.9% | 100% | 109% | 101% | normalised viability (MDA-MB-436; 100 nM): 108%; normalised viability (MDA-MB-468; 100 nM): 99.2%; normalised viability (HCC1937 [17]; 100 nM): 100%; normalised viability (CAL-120 [18]; 100 nM): 78.2%; normalised viability (CAL-148 [19]; 10 nM): 98.2%; normalised viability (CAL-51; 10 nM): 102%; normalised viability (DU-4475 [20]; 10 nM): 97.9%; normalised viability (MDA-MB-453 [21]; 10 nM): 112%; normalised viability (BT-474 [22]; 100 nM): 117%
CO[C@H]1C[C@@H]2CC[C@@H](C)[C@@](O)(O2)C(=O)C(=O)N2CCCC[C@H]2C(=O)O[C@H]([C@H](C)C[C@@H]2CC[C@@H](O)[C@H](OC)C2)CC(=O)[C@H](C)/C=C(\C)[C@@H](O)[C@@H](OC)C(=O)[C@H](C)C[C@H](C)/C=C/C=C/C=C/1C [Sirolimus] | 0 | 0 | 0 | 0 | 0 | 1.4 | 0 | 0 | 0 | 0 | 0 | – | – | – | – | – | – | – | – | – | normalised viability (SK-BR-3; 10 nM): 59.1%; normalised viability (MFM-223 [12]; 10 nM): 49%; normalised viability (BT-549 [13]; 10 nM): 53%; normalised viability (HCC1599; 10 nM): 73.8%; normalised viability (HDQ-P1; 1 nM): 76.7%; normalised viability (Hs578T; 10 nM): 58.2%; normalised viability (MDA-MB-231 [14]; 10 nM): 67.7%; normalised viability (CAL-85-1 [15]; 1 nM): 68.9%; normalised viability (HCC1143 [16]; 10 nM): 67.9%; normalised viability (MDA-MB-436; 10 nM): 82.5%; normalised viability (MDA-MB-468; 10 nM): 65.4%; normalised viability (HCC1937 [17]; 10 nM): 61.5%; normalised viability (CAL-120 [18]; 10 nM): 54.5%; normalised viability (CAL-148 [19]; 1 nM): 74.8%; normalised viability (CAL-51; 1 nM): 62.6%; normalised viability (DU-4475 [20]; 1 nM): 85.1%; normalised viability (MDA-MB-453 [21]; 1 nM): 54.3%; normalised viability (BT-474 [22]; 10 nM): 65.9%
CC/C(=C(\c1ccccc1)c1ccc(OCCN(C)C)cc1)c1ccccc1 [Tamoxifen] | 0 | 0 | 3.47 | 1.12 | 0 | 17.1 | 0 | 0 | 0 | 1.55 | 4.12 | 90.7% | 95.2% | 88.3% | 92.5% | 104% | 91.7% | 91% | 102% | 126% | normalised viability (MDA-MB-436; 100 nM): 97.5%; normalised viability (MDA-MB-468; 100 nM): 122%; normalised viability (HCC1937 [17]; 100 nM): 93.7%; normalised viability (CAL-120 [18]; 100 nM): 106%; normalised viability (CAL-148 [19]; 10 nM): 108%; normalised viability (CAL-51; 10 nM): 92%; normalised viability (DU-4475 [20]; 10 nM): 94.1%; normalised viability (MDA-MB-453 [21]; 10 nM): 257%; normalised viability (BT-474 [22]; 100 nM): 112%
COc1cc2c(N3CCN(C(=O)Nc4ccc(OC(C)C)cc4)CC3)ncnc2cc1OCCCN1CCCCC1 [Tandutinib] | 0 | 0 | 0 | 0 | 0 | 0 | 0 | 0 | 0 | 0 | 0 | – | – | – | – | – | – | – | – | – | normalised viability (SK-BR-3; 10 nM): 84.3%; normalised viability (MFM-223 [12]; 10 nM): 102%; normalised viability (BT-549 [13]; 10 nM): 106%; normalised viability (HCC1599; 10 nM): 101%; normalised viability (HDQ-P1; 1 nM): 130%; normalised viability (Hs578T; 10 nM): 94.5%; normalised viability (MDA-MB-231 [14]; 10 nM): 108%; normalised viability (CAL-85-1 [15]; 1 nM): 104%; normalised viability (HCC1143 [16]; 10 nM): 125%; normalised viability (MDA-MB-436; 10 nM): 102%; normalised viability (MDA-MB-468; 10 nM): 108%; normalised viability (HCC1937 [17]; 10 nM): 98.4%; normalised viability (CAL-120 [18]; 10 nM): 110%; normalised viability (CAL-148 [19]; 1 nM): 98.1%; normalised viability (CAL-51; 1 nM): 109%; normalised viability (DU-4475 [20]; 1 nM): 107%; normalised viability (MDA-MB-453 [21]; 1 nM): 110%; normalised viability (BT-474 [22]; 10 nM): 123%
C[C@@H](C(=O)O)c1ccc(-c2ccccc2)c(F)c1 [Tarenflurbil] | 0 | 0 | 0 | 0 | 0 | 0 | 0 | 0 | 0 | 0 | 0.00754 | 84.8% | 101% | 103% | 103% | 91.8% | 72.9% | 90.8% | 91.5% | 98.8% | normalised viability (MDA-MB-436; 100 nM): 122%; normalised viability (MDA-MB-468; 100 nM): 104%; normalised viability (HCC1937 [17]; 100 nM): 109%; normalised viability (CAL-120 [18]; 100 nM): 98.6%; normalised viability (CAL-148 [19]; 10 nM): 90.2%; normalised viability (CAL-51; 10 nM): 118%; normalised viability (DU-4475 [20]; 10 nM): 114%; normalised viability (MDA-MB-453 [21]; 10 nM): 99.5%; normalised viability (BT-474 [22]; 100 nM): 109%
Cn1nnc2c(C(N)=O)ncn2c1=O [Temozolomide] | 0 | 0 | 0 | 0 | 0 | 0 | 0 | 0 | 0 | 0 | 0 | 96.2% | 105% | 83.6% | 115% | 92.3% | 81.3% | 104% | 102% | 85.4% | normalised viability (MDA-MB-436; 100 nM): 94.5%; normalised viability (MDA-MB-468; 100 nM): 95.7%; normalised viability (HCC1937 [17]; 100 nM): 100%; normalised viability (CAL-120 [18]; 100 nM): 95.9%; normalised viability (CAL-148 [19]; 10 nM): 90.4%; normalised viability (CAL-51; 10 nM): 98.5%; normalised viability (DU-4475 [20]; 10 nM): 124%; normalised viability (MDA-MB-453 [21]; 10 nM): 101%; normalised viability (BT-474 [22]; 100 nM): 98.2%
CC[C@@H]1C(=O)N(C)c2cnc(Nc3ccc(C(=O)N[C@H]4CC[C@H](N5CCN(CC6CC6)CC5)CC4)cc3OC)nc2N1C(C)C [Volasertib] | 14.5 | 3.98 | 3.33 | 8.26 | 14.8 | 17.3 | 0 | 0 | 0 | 0 | 0 | – | – | – | – | – | – | – | – | – | normalised viability (SK-BR-3; 10 nM): 53.6%; normalised viability (MFM-223 [12]; 10 nM): 51.1%; normalised viability (BT-549 [13]; 10 nM): 94.5%; normalised viability (HCC1599; 10 nM): 78.5%; normalised viability (HDQ-P1; 1 nM): 103%; normalised viability (Hs578T; 10 nM): 97.3%; normalised viability (MDA-MB-231 [14]; 10 nM): 92.8%; normalised viability (CAL-85-1 [15]; 1 nM): 95.3%; normalised viability (HCC1143 [16]; 10 nM): 77.4%; normalised viability (MDA-MB-436; 10 nM): 88.6%; normalised viability (MDA-MB-468; 10 nM): 83.8%; normalised viability (HCC1937 [17]; 10 nM): 70.6%; normalised viability (CAL-120 [18]; 10 nM): 48.5%; normalised viability (CAL-148 [19]; 1 nM): 98.3%; normalised viability (CAL-51; 1 nM): 102%; normalised viability (DU-4475 [20]; 1 nM): 124%; normalised viability (MDA-MB-453 [21]; 1 nM): 104%; normalised viability (BT-474 [22]; 10 nM): 55.8%
